Measured values published in patent publication US10851115B2, “Heterocyclic compounds as RSV inhibitors” (Enanta Pharmaceuticals, Inc., priority 2017, dated 2020).

test system: Human RSV-A (“Long” strain); test: RSV in vitro cytoprotection assay in HEp-2 cells (ATPlite readout); assay type: cell-based; conditions: human respiratory syncytial virus, 96 h; HEp-2 cells, 4-day incubation, ATPlite; read-out: Human RSV-A (“Long” strain) EC50
Text: RSV is a single stranded negative sense RNA virus that causes respiratory tract infections which can be dangerous to infants, the elderly, and immunosuppressed individuals. Currently there is no vaccine, and therapeutic options are both costly and of limited effectiveness. These approved treatments are Ribavirin, and Palivizumab/Synagis (a monoclonal antibody). RSV has two genotypes, A and B, which differ primarily in the structure of the virus' surface “G” attachment protein. Our current primary screen focusses on RSV-A and uses an in vitro cytoprotection assay where compounds are added in 2-fold dilutions to cells which are then subjected to fully replicative viral particles. Cell viability is measured several days later along with separate measurements of compound cytotoxicity. This report focuses on the results of our most recent screening of compounds.
HEp-2 cells, (originally derived from tumors grown in irradiated-cortisonised weanling rats that had been injected with epidermoid carcinoma tissue from a person's larynx, but later found to be indistinguishable from HeLa cells by PCR DNA analysis), were used for the culturing of genotype A, “Long” strain RSV. Flasks were inoculated with RSV and viral stocks were collected once cytopathic effect (CPE) was greater than 90%. Viral stocks in 25% sucrose media were snap frozen using liquid nitrogen to increase viral stability. Viral stock titers were quantified by tissue culture infectious dose 50% (TCID50) using 8,000 cells per well and 3-fold viral dilutions across a 96-well plate, cultured for 4 days.
Following extensive parameter testing, the final assay is run as follows: HEp-2 cells are seeded into the inner 60 wells of a 96-well plate at 8,000 cells per well in a volume of 50 μL using Growth Media (DMEM without phenol red, 1% L-Glut, 1% Penn/Strep, 1% nonessential amino acids, 10% FBS). 2-Fold serial dilutions of control and test compounds are added to the wells in duplicate in a total volume of 25 μL. Viral stock is then added to the wells in a volume of 25 μL, bringing the total volume of each well to 100 μL. Each 96-well plate has a control column of 6 wells with cells and virus but no compound (negative control, max CPE), a column with cells but no compound or virus (positive control, minimum CPE), and a column with no cells or virus or compound (background plate/reagent control). The control wells with cells but no virus are given an additional 25 uL of growth media containing an equal quantity of sucrose as those wells receiving the viral stock in order to keep consistent in media and volume conditions. The outer wells of the plate are filled with 125 μL of growth media to act as a thermal and evaporative moat around the test wells. Following a 4-day incubation period, the plates are read using ATPlite (50 uL added per well), which quantifies the amount of ATP (a measure of cell health) present in each well. Assay plates are read using the Envision luminometer. In parallel, cytotoxicity is examined on an additional 96-well plate treated in an identical manner, but substituting the 25 μL of viral stock for 25 μL of growth media. […] EC50 ranges are as follows: A<0.01 μM; B 0.01-0.05 μM; C>0.05 μM.

Structure (SMILES)	EC50 [µM]
O=C(Nc1c(F)cccc1Cl)c1cc2c(s1)-c1ccncc1N(C(=O)c1ccc(NC(=O)c3cccnc3N3CC4(CCOCC4)C3)cc1)CC2 [Example 2]	0.01 to 0.05
O=C(Nc1ccc(C(=O)N2CCc3cc(-c4nc5ccccc5[nH]4)sc3-c3ccncc32)cc1)c1cccnc1N1CC2(CCOCC2)C1 [Example 3]	> 0.05
O=C(Nc1c(F)cccc1F)c1cc2c(s1)-c1ncccc1N(C(=O)c1ccc(NC(=O)c3cccnc3N3CC4(CCOCC4)C3)cc1)CC2 [Example 4]	< 0.01
O=C(Nc1c(F)cccc1Cl)c1cc2c(s1)-c1ncccc1N(C(=O)c1ccc(NC(=O)c3cccnc3N3CC4(CCOCC4)C3)cc1)CC2 [Example 5]	< 0.01
Cc1cnc(N2CC3(CCOCC3)C2)c(C(=O)Nc2ccc(C(=O)N3CCc4cc(C(=O)Nc5c(C)cccc5C)sc4-c4ncccc43)cc2)c1 [Example 7]	< 0.01
Cc1cnc(N2CC3(CCOCC3)C2)c(C(=O)Nc2ccc(C(=O)N3CCc4cc(C(=O)Nc5c(C)cccc5C#N)sc4-c4ncccc43)cc2)c1 [Example 8]	< 0.01
Cc1cnc(N2CC3(CCOCC3)C2)c(C(=O)Nc2ccc(C(=O)N3CCc4cc(C(=O)Nc5c(F)cc(F)cc5F)sc4-c4ncccc43)cc2)c1 [Example 10]	< 0.01
Cc1cnc(N2CC3(CCOCC3)C2)c(C(=O)Nc2ccc(C(=O)N3CCc4cc(C(=O)Nc5c(C)cccc5F)sc4-c4ncccc43)cc2)c1 [Example 11]	< 0.01
Cc1cnc(N2CC3(CCOCC3)C2)c(C(=O)Nc2ccc(C(=O)N3CCc4cc(C(=O)Nc5c(Cl)cccc5Cl)sc4-c4ncccc43)cc2)c1 [Example 12]	< 0.01
Cc1cnc(N2CC3(CCOCC3)C2)c(C(=O)Nc2ccc(C(=O)N3CCc4cc(C(=O)N[C@@H]5CCOC5)sc4-c4ncccc43)cc2)c1 [Example 17]	0.01 to 0.05
Cc1cnc(N2CC3(CCOCC3)C2)c(C(=O)Nc2ccc(C(=O)N3CCc4cc(C(=O)Nc5ccncc5)sc4-c4ncccc43)cc2)c1 [Example 21]	< 0.01
Cc1cnc(N2CC3(CCOCC3)C2)c(C(=O)Nc2ccc(C(=O)N3CCc4cc(C(=O)NCc5ccco5)sc4-c4ncccc43)cc2)c1 [Example 24]	< 0.01
Cc1cnc(N2CC3(CCOCC3)C2)c(C(=O)Nc2ccc(C(=O)N3CCc4cc(C(=O)NC5CCOCC5)sc4-c4ncccc43)cc2)c1 [Example 27]	< 0.01
Cc1cnc(N2CC3(CCOCC3)C2)c(C(=O)Nc2ccc(C(=O)N3CCc4cc(C(=O)Nc5ncco5)sc4-c4ncccc43)cc2)c1 [Example 30]	0.01 to 0.05
Cc1cnc(N2CC3(CCOCC3)C2)c(C(=O)Nc2ccc(C(=O)N3CCc4cc(C(=O)Nc5cccnc5C)sc4-c4ncccc43)cc2)c1 [Example 32]	< 0.01
Cc1cnc(N2CC3(CCOCC3)C2)c(C(=O)Nc2ccc(C(=O)N3CCc4cc(C(=O)Nc5ccncc5C)sc4-c4ncccc43)cc2)c1 [Example 34]	< 0.01
Cc1cnc(N2CC3(CCOCC3)C2)c(C(=O)Nc2ccc(C(=O)N3CCc4cc(C(=O)Nc5c(Cl)cncc5Cl)sc4-c4ncccc43)cc2)c1 [Example 37]	< 0.01
Cc1ccc(C(=O)Nc2ccc(C(=O)N3CCc4cc(C(=O)Nc5c(F)cccc5F)sc4-c4ncccc43)cc2)c(N2CC3(CCOCC3)C2)n1 [Example 39]	< 0.01
Cc1ccc(C(=O)Nc2ccc(C(=O)N3CCc4cc(C(=O)Nc5c(C)cccc5F)sc4-c4ncccc43)cc2)c(N2CC3(CCOCC3)C2)n1 [Example 41]	< 0.01

Next, values leading:

EC50 [µM]	Structure (SMILES)
> 0.05	O=C(Nc1c(F)cccc1F)c1cc2c(s1)-c1ccncc1N(C(=O)c1ccc(NC(=O)c3cccnc3N3CC4(CCOCC4)C3)cc1)CC2 [Example 1]
> 0.05	O=C(Nc1ccc(C(=O)N2CCc3cc(-c4nc5ccccc5[nH]4)sc3-c3ncccc32)cc1)c1cccnc1N1CC2(CCOCC2)C1 [Example 6]
< 0.01	Cc1cnc(N2CC3(CCOCC3)C2)c(C(=O)Nc2ccc(C(=O)N3CCc4cc(C(=O)Nc5c(F)cccc5F)sc4-c4ncccc43)cc2)c1 [Example 9]
0.01 to 0.05	Cc1cnc(N2CC3(CCOCC3)C2)c(C(=O)Nc2ccc(C(=O)N3CCc4cc(C(=O)Nc5ncccn5)sc4-c4ncccc43)cc2)c1 [Example 14]
< 0.01	Cc1cnc(N2CC3(CCOCC3)C2)c(C(=O)Nc2ccc(C(=O)N3CCc4cc(C(=O)Nc5ncccc5F)sc4-c4ncccc43)cc2)c1 [Example 15]
< 0.01	Cc1cnc(N2CC3(CCOCC3)C2)c(C(=O)Nc2ccc(C(=O)N3CCc4cc(C(=O)Nc5ncc(C)s5)sc4-c4ncccc43)cc2)c1 [Example 16]
0.01 to 0.05	Cc1cnc(N2CC3(CCOCC3)C2)c(C(=O)Nc2ccc(C(=O)N3CCc4cc(C(=O)N[C@H]5CCOC5)sc4-c4ncccc43)cc2)c1 [Example 18]
< 0.01	Cc1cnc(N2CC3(CCOCC3)C2)c(C(=O)Nc2ccc(C(=O)N3CCc4cc(C(=O)Nc5ccccn5)sc4-c4ncccc43)cc2)c1 [Example 19]
< 0.01	Cc1cnc(N2CC3(CCOCC3)C2)c(C(=O)Nc2ccc(C(=O)N3CCc4cc(C(=O)Nc5cccnc5)sc4-c4ncccc43)cc2)c1 [Example 20]
< 0.01	Cc1cnc(N2CC3(CCOCC3)C2)c(C(=O)Nc2ccc(C(=O)N3CCc4cc(C(=O)Nc5ncccc5C)sc4-c4ncccc43)cc2)c1 [Example 22]
< 0.01	Cc1cnc(N2CC3(CCOCC3)C2)c(C(=O)Nc2ccc(C(=O)N3CCc4cc(C(=O)Nc5cccc(C)n5)sc4-c4ncccc43)cc2)c1 [Example 23]
< 0.01	COCC1(NC(=O)c2cc3c(s2)-c2ncccc2N(C(=O)c2ccc(NC(=O)c4cc(C)cnc4N4CC5(CCOCC5)C4)cc2)CC3)CCC1 [Example 25]
< 0.01	Cc1cnc(N2CC3(CCOCC3)C2)c(C(=O)Nc2ccc(C(=O)N3CCc4cc(C(=O)NCc5ccccn5)sc4-c4ncccc43)cc2)c1 [Example 26]
< 0.01	Cc1cnc(N2CC3(CCOCC3)C2)c(C(=O)Nc2ccc(C(=O)N3CCc4cc(C(=O)NC[C@H]5CCCO5)sc4-c4ncccc43)cc2)c1 [Example 28]
< 0.01	Cc1cnc(N2CC3(CCOCC3)C2)c(C(=O)Nc2ccc(C(=O)N3CCc4cc(C(=O)NCC5CCCO5)sc4-c4ncccc43)cc2)c1 (stereo not drawn) [Example 29]
< 0.01	Cc1cnc(N2CC3(CCOCC3)C2)c(C(=O)Nc2ccc(C(=O)N3CCc4cc(C(=O)Nc5cccnn5)sc4-c4ncccc43)cc2)c1 [Example 31]
< 0.01	Cc1cnc(N2CC3(CCOCC3)C2)c(C(=O)Nc2ccc(C(=O)N3CCc4cc(C(=O)Nc5cnccc5C)sc4-c4ncccc43)cc2)c1 [Example 33]
< 0.01	Cc1cnc(N2CC3(CCOCC3)C2)c(C(=O)Nc2ccc(C(=O)N3CCc4cc(C(=O)Nc5nccs5)sc4-c4ncccc43)cc2)c1 [Example 35]
0.01 to 0.05	Cc1cnc(N2CC3(CCOCC3)C2)c(C(=O)Nc2ccc(C(=O)N3CCc4cc(C(=O)NCc5cccnc5)sc4-c4ncccc43)cc2)c1 [Example 36]
0.01 to 0.05	Cc1cnc(N2CC3(CCOCC3)C2)c(C(=O)Nc2ccc(C(=O)N3CCc4cc(-c5nc6ccccc6[nH]5)sc4-c4ncccc43)cc2)c1 [Example 38]
< 0.01	Cc1ccc(C(=O)Nc2ccc(C(=O)N3CCc4cc(C(=O)Nc5c(F)cc(F)cc5F)sc4-c4ncccc43)cc2)c(N2CC3(CCOCC3)C2)n1 [Example 40]
< 0.01	Cc1ccc(C(=O)Nc2ccc(C(=O)N3CCc4cc(-c5nc6ccccc6[nH]5)sc4-c4ncccc43)cc2)c(N2CC3(CCOCC3)C2)n1 [Example 42]
0.01 to 0.05	Cc1ccc(C(=O)Nc2ccc(C(=O)N3CCc4cc(-c5nc6cccc(Cl)c6[nH]5)sc4-c4ncccc43)cc2)c(N2CC3(CCOCC3)C2)n1 [Example 43]
